Here are results for one compound from US20060222707A1 (priority 2005, published 2006).

The data set in a line: Small volume in vitro release test in 50 ml 0.1N HCl. The format is physicochemical. The conditions noted are these: 37° C., 150 rpm. The procedure: The formulations were tested for their small volume in vitro release characteristics in 50 ml 0.1N HCl at 37° C. and 150 rpm using the following procedure: III. Instrumentation (or Equivalent) a. Automated Dissolution System comprising: Hanson SR8 Plus Test Station Hanson Auto Plus Maximiser System Controller Hanson Auto Plus MultiFill Fraction Collector b. HPLC System comprising: pump—Merck Hitachi L-7100 autoinjector—Merck Hitachi L-7200 column oven—Merck Hitachi L-7300 detector—Merck Hitachi L-7400 interface and integration software—Merck Hitachi D-7000
0.1N HCl Preparation Dilute 8.5 ml HCl 37% to 1 liter with purified water. Procedure Place one weighed capsule in each vessel containing 0.1N HCl and immediately operate the apparatus for 30 min. Unless otherwise specified, 3 ml samples are withdrawn from each vessel and immediately filtered through PTFE membranes at 15 and 30 min.
The small volume was chosen as a model of the conditions in a fasted stomach.

With `CC(C)OC(=O)C(C)(C)Oc1ccc(C(=O)c2ccc(Cl)cc2)cc1` [Micronized Fenofibrate], the “dissolution under small volume conditions (in words)” value is listed as “no dissolution at all”.
